Data: patent publication US20240082212A1, “USE OF MDMA FOR TREATMENT OF STRESS-RELATED DISORDERS” (priority 2022, published 2024)

Key:
[1] = target: Serotonin 5-HT2A (Homo sapiens, UniProt P28223); experiment: Eurofins Panlabs radioligand binding panel, serotonin 5-HT2A
[2] = system: rats; conditions: 4 hourly SC injections at 10 mg/kg/injection (Biezonski et al., 2013); cited from earlier work
[3] = rats; 1 week after 4 hourly SC injections at 10 mg/kg/injection (Biezonski et al., 2013); cited from earlier work
[4] = system: PTSD participants; conditions: cited from earlier work
[5] = system: L-type calcium channel phenylalkylamine binding site; experiment: Eurofins Panlabs radioligand binding panel, L-type calcium channel; design: species or system Rat; conditions: for % inhibition of binding or activity: 10 uM; for IC50 / Ki: 10 half-log concentrations, 0.3 nM to 10 μM, duplicate
[6] = target: T1, Adrenergic α2A (Homo sapiens, UniProt P08913); experiment: Eurofins Panlabs radioligand binding panel, adrenergic α2A; conditions: 10 uM
T1 sequence (P08913 1-465): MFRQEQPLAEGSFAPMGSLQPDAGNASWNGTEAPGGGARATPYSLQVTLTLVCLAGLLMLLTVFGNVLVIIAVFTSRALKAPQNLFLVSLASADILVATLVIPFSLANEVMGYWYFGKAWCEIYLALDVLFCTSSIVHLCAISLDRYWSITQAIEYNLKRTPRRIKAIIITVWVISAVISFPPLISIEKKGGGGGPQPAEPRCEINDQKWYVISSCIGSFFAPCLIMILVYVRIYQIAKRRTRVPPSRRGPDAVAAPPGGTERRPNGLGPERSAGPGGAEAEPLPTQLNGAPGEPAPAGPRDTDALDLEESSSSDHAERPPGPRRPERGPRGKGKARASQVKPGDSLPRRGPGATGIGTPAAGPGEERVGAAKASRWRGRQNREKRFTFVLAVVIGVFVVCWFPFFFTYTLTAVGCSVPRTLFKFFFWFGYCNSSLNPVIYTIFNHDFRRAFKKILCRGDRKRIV
Procedure: Each of the compounds was evaluated for binding to 87 different targets as part of a panel (Eurofins Panlabs, Taiwan, China). Each compound was tested at a single concentration of […]. The panel included mostly G-protein-couple receptors, ion channels, enzymes, transporters and nuclear receptors, expressed in the central nervous system, cardiovascular, respiratory, gastrointestinal and renal systems. A limited number of targets were of pig, rat or guinea pig origin. Targets were expressed in human recombinant cells lines, rat brain or spinal cord, guinea pig brain or pig heart. Methods were adapted from the scientific literature to maximize reliability and reproducibility. Reference standards were run as an integral part of each assay to ensure validity of the results obtained (available online at the eurofins website for the safety screen 87 panel).

[7] = target: T2, Adrenergic α2B (Homo sapiens, UniProt P18089); experiment: Eurofins Panlabs radioligand binding panel, adrenergic α2B; conditions: 10 uM
T2 sequence (P18089 1-450): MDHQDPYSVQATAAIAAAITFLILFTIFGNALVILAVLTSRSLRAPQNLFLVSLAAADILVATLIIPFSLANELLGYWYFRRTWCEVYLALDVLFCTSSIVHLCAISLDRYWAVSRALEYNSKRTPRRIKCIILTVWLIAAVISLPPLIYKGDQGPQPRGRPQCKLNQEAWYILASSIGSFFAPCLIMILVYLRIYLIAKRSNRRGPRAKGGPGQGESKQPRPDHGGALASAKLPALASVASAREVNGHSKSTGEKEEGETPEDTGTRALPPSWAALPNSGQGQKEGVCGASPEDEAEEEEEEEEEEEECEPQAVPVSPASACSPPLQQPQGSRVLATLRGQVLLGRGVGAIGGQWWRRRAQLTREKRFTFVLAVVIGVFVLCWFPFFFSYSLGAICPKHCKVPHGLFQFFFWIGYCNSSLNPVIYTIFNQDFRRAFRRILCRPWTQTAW

Sequence of Serotonin 5-HT2A (P28223 whole entry): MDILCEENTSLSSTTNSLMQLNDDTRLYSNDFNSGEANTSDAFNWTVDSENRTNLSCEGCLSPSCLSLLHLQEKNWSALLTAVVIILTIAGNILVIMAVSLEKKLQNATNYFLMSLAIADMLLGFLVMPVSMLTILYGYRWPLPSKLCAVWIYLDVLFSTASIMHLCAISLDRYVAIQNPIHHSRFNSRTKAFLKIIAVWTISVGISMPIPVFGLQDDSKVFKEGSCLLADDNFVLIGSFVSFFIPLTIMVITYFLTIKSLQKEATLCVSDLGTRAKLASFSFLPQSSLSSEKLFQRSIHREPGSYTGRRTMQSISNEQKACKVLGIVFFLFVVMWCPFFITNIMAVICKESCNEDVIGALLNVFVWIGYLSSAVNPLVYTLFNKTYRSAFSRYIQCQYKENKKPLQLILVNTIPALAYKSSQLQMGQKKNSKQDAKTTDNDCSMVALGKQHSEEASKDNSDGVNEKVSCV

In the case of CNC(C)Cc1ccc2c(c1)OCO2 (racemic) [Racemic MDMA, 3,4-methylenedioxymethamphetamine], the “% inhibition of binding or activity” value ([1]; 10 uM) is given as 59%, the body temperature [2] is given as “significant increase in body temperature” and the “frontal cortical and striatal monoamine concentrations” value [3] is given as “significant reductions in frontal cortical 5-HT and 5-HIAA and striatal DOPAC and HVA concentrations”. The “vital signs (systolic and diastolic blood pressure and heart rate)” value ([4]; MDMA group, Phase 3 clinical trial (Mitchell et al., 2021)) was “transient increase in vital signs”, the “efficacy for PTSD” value ([4]; Phase 3 clinical trial (Mitchell et al., 2021)) was “efficacy” and the “transient increase in body temperature to” value ([4]; two participants in the MDMA group) was 38.1 °C.
With CNC(C)Cc1ccc2c(c1)OCO2 (single isomer, unassigned) [R-MDMA, R(−)-3,4-methylenedioxymethamphetamine] the IC50 [1] was 9.91 µM, the Ki [1] was 2.83 µM and the “% inhibition of binding or activity” value [5] was 55%. It also gave an IC50 [5] of 9.5 µM and a Ki [5] of 9.23 µM.
In the case of CNC(C)Cc1ccc2c(c1)OCO2 (single isomer, unassigned) [S-MDMA, S(+)-MDMA], the “% inhibition of binding or activity” value [5] is reported as 51%, the IC50 [5] is reported as 9.31 µM and the Ki [5] is reported as 9.05 µM.
For C[C@H](N)Cc1ccc2c(c1)OCO2 [S-MDA, S(+)-MDA], the “% inhibition of binding or activity” value [6] was 63% and the “% inhibition of binding or activity” value [7] was 51%.
